Results as given in patent publication US9775915B2, “Trioxacarcins, trioxacarcin-antibody conjugates, and uses thereof” (President and Fellows of Harvard College, priority 2012, dated 2017).
“Also recorded” adds a separate entry of the source.

Columns and labels:
[1] = test system: H460, T-47D, HEK293, N87, MDA-MB-361/DYT2, HT-29, HL-60 and HEL 92.1.7 cells; assay: Growth inhibition (GI50) comparison of trioxacarcins, FIG. 10 cell line panel; assay type: cell-based; settings: structure-activity comments on FIG. 10
Description: Cell Proliferation Assay. A suspension of H460 cells (3000 cells/well) in growth medium was seeded onto a 96-well plate. The 96-well plate was incubated for 24 h at 37° C. Stock solutions of each compound were diluted serially and the resulting solutions were administrated to cells to achieve final concentrations of 110 pM to 250 nM (trioxacarcin A) or 1.1 nM to 2.5 μM (all other compounds). After incubating at 37° C. for 72 h, 20 μL of resazurin solution (Promega CellTiter-Blue® Cell Viability Assay) was added to each well. After incubating at 37° C. for 2.0 h, the fluorescence (560 nm excitation/590 nm emission) was recorded using a microplate reader (SpectraMax PLUS^384) as a measure of viable cells. Percent growth inhibition was calculated for each well, based upon the following formula: Percent growth inhibition=100×(S−B0)/(Bt−B0); where S is the sample fluorescence, Bt is the average fluorescence for a vehicle-treated population of cells at the completion of the assay, and B0 is the average fluorescence for an untreated population of cells at the beginning of the assay. The average percent inhibition at each concentration was plotted against log(concentration), and a curve fit was generated using a four-parameter logistic equation. GI50 values were computed to reflect the concentrations at which the resulting curves pass through 50% inhibition. […]

[2] = test system: lung (LXFL 529L, H-460), mammary (MCF-7), and CNS (SF-268) cancer cell lines; settings: human cancer cell lines; Maskey et al. 2004; cited from earlier work
H460 cells = assay: Cell proliferation assay (CellTiter-Blue resazurin), H460 cells; assay type: cell-based; settings: 72 h incubation
Description: H460 cells were purchased from American Type Culture Collection (ATCC).
A suspension of H460 cells (3000 cells/well) in growth medium was seeded onto a 96-well plate. The 96-well plate was incubated for 24 h at 37° C. […] After incubating at 37° C. for 72 h, 20 μL of resazurin solution (Promega CellTiter-Blue® Cell Viability Assay) was added to each well. […] Percent growth inhibition was calculated for each well, based upon the following formula: Percent growth inhibition=100×(S−B0)/(Bt−B0); where S is the sample fluorescence, Bt is the average fluorescence for a vehicle-treated population of cells at the completion of the assay, and B0 is the average fluorescence for an untreated population of cells at the beginning of the assay. The average percent inhibition at each concentration was plotted against log(concentration), and a curve fit was generated using a four-parameter logistic equation.

[3] = Chemical stability (base, aqueous or alcoholic solvents); assay type: physicochemical; settings: basic conditions in aqueous or alcoholic solvents

Q: Which “antiproliferative activity (in words, FIG. 10)” value [1] does the source give for `COc1c2c(c(O)c3c4c(c(C)cc13)[C@@H]1O[C@@]3(C(OC)OC)O[C@@H]1[C@@](O)(O4)[C@@]31CO1)C(=O)[C@@H](O)C[C@@H]2O[C@H]1C[C@@](C)(O)[C@H](OC(C)=O)[C@H](C)O1` [DC-45-A1] here?
A: Its value is “highly potent antiproliferative agents”.

Q: Which results are given for `COc1c2c(c(O)c3c4c(c(C)cc13)[C@@H]1O[C@@]3(C(OC)OC)O[C@@H]1[C@@](O[C@H]1C[C@@H](O)[C@@](O)(C(C)=O)[C@H](C)O1)(O4)[C@@]31CO1)C(=O)[C@@H](O)C[C@@H]2O[C@H]1C[C@@](C)(O)[C@H](OC(C)=O)[C@H](C)O1` [trioxacarcin A]?
A: IC70 [2]: subnanomolar; also recorded: subnanmolar; GI50 (H460 cells): 0.85 ± 0.36 nM; stability under basic conditions [3]: unstable
